Measurements reported in patent US4996227A, “3-(heteroarylalkyene)- and 3-(arylalkylene)-2,4(3H,5H)-heterocyclic diones as cancer chemotherapy drugs” (priority 1989, dated 1991).
Read-outs that look alike come from different tables or passages of the source.

Tests used:
human tumor H5315 BREAST = assay: Human Tumor Stem Cell Assay, colony growth after one hour exposure; assay type: cell-based; conditions: LO: furandione 0.2 mcg/ml; standard drugs 10% of peak plasma concentration; 1 h
Text: (§1) The in vitro Human Tumor Stem Cell Assay procedure described as follows has several advantages for testing the effectiveness of chemotherapy drugs such as the 3-(heteroarylalkylene)-2,4(3H,5H)-furandiones. The first advantage is that fresh tumor cells from a variety of tumor types were used rather than a small number of cell lines which have undergone severe selection pressures as they are passed in vitro. The second advantage is that only the anchorage-independent tumor cells will form colonies in soft agar so that any non-malignant cells present in the sample will not form colonies. Perhaps the most important advantage, however, is the emphasis on cells which have the ability to form colonies. These cells, which are generally called stem cells, usually comprise only a small percentage of all tumor cells. They are thought to be the most important cells for growth and distant spread of a tumor. In particular, these cells have the potential to leave the primary tumor and form new tumors at distant sites (called metastases). It is the effectiveness against these very important stem cells that the Human Tumor Stem Cell Assay measures.
(§2) One of the 3-(heteroarylalkylene)-2,4(3H,5H)-furandione compounds, 3-[(5-methyl-2-thienyl) methylene]-2,4(3H,5H)-furandione was evaluated against a series of 10 human tumors in the in vitro Human Tumor Cell Assay, along with conventional and standard chemotherapy agents.
(§3) In the procedure, a single cell suspension was prepared from tumors excised from patients during therapeutic or diagnostic surgical procedures. The human tumor cells were exposed to known anticancer drugs or to [(5-methyl-2-thienyl)methylene]-2,4 (3H, 5H)-furandione at a low (0.2 mcg/ml) or a high (1.0 mcg/ml) concentration for one hour. […] The suspension was washed with tissue culture medium to remove the drug.
(§4) The suspension was then cultured in a double soft agar suspension. Control cells which had been treated identically, except for exposure to the drugs, were also cultured. After one to two weeks, both the tumor cells and the control cells formed colonies in the soft agar which were enumerated under a microscope. The number of colonies grown from the drug-treated cells was compared to the number of colonies grown from the control cells, and the percentage growth after exposure to the drug was calculated.
(§5) The results are illustrated in Table 1, wherein the various numbers indicate the percentage of growth. For example, a small number like 6 means that the number of colonies is only 6% of the number without addition of the compound. On the other hand, a large number like 120 means that the number of colonies is 20% greater with the compound than without.
(§6) Of the nine tumors for which the higher concentration (1.0 mcg/ml) of the furandione was used, five gave inhibition of colony growth corresponding to borderline sensitive (30-50% growth) and four gave inhibition corresponding to sensitivity (0-30% growth). Clinical drugs are normally tested at 10% of their peak plasma concentration. For the standard chemotherapy drugs shown in Table 1, the low concentration (LO) corresponds to this 10% level, and the high concentration (HI) is at 50% of the peak plasma concentration. Of the same nine tumors, only two would have been rated as sensitive or borderline sensitive to any of the other clinical drugs tested.

human tumor H5318 OVARY = assay: as above; assay type: cell-based; conditions: HI: furandione 1.0 mcg/ml; standard drugs 50% of peak plasma concentration; 1 h
Text: as §1, §2, §3, §4, §5, §6

human tumor H5319 BREAST = assay: as above; assay type: cell-based; conditions: 1 h
Text: as §1, §2, §3, §4, §5, §6

[1] = system: human tumor H5322 STOMACH; assay: as above; assay type: cell-based; conditions: 1 h
Text: as §1, §2, §3, §4, §5, §6

[2] = system: human tumor H5325 SARCOMA; assay: as above; assay type: cell-based; conditions: 1 h
Text: as §1, §2, §3, §4, §5, §6

human tumor H5330 THYMUS = assay: as above; assay type: cell-based; conditions: 1 h
Text: as §1, §2, §3, §4, §5, §6

human tumor H5331 OVARY = assay: as above; assay type: cell-based; conditions: 1 h
Text: as §1, §2, §3, §4, §5, §6

human tumor H5337 COLON = assay: as above; assay type: cell-based; conditions: 1 h
Text: as §1, §2, §3, §4, §5, §6

human tumor H5340 ** = assay: as above; assay type: cell-based; conditions: 1 h
Text: as §1, §2, §3, §4, §5, §6

human tumor H5349 BREAST = assay: as above; assay type: cell-based; conditions: 1 h
Text: as §1, §2, §3, §4, §5, §6

human tumors = assay: Human Tumor Stem Cell Assay, summary over the tumor panel; assay type: cell-based; conditions: for activity at 1 µg/mL: Homo sapiens, 1.0 mcg/ml, 1 h
Text: as §1, §2, §3, §4
as §5, with “without. […]” for “without.”

healthy mice = assay: Toxicology testing in healthy mice: deaths / LD50; assay type: in vivo; conditions: i.p.
Description: The purpose of this example was to determine approximate toxicity of the compound 3[(5-methyl-2-thienyl) methylene]-2,4(3H,5H)-furandione in healthy mice. The in vivo concentrations employed in the example were selected by using the in vitro results in the Human Tumor Stem Cell Assay as a guide. The compound was given to the mice by means of intra-peritoneal injection. In addition to a control group which was injected with the appropriate carrier solution without drug, three test groups with calculated plasma concentrations of 1, 10 and 100 mcg/ml (low, medium and high concentrations) were prepared. Based upon the results from Table 1, the three test groups represent low, medium and high concentrations of drug dosages. The highest concentration of 100 mcg/ml is about 10 times the predicted effective dose (in vivo) of tumoricidal activity. Each group contained eight animals. Blood was extracted from four animals in each group two days after the intraperitoneal injection and routine hematology (i.e., a hemoglobin concentration, a white blood cell count, and a neutrophil count) procedures were performed.
Half of the animals in each group were sacrificed after one week (Day 7), and the remaining animals in each group were sacrificed after two weeks (Day 14). Routine hematology was performed at the time of sacrifice.

[3] = HI: furandione 1.0 mcg/ml, standard drugs 50% of peak plasma concentration
[4] = LO: furandione 0.2 mcg/ml, standard drugs 10% of peak plasma concentration

## Cc1ccc(C=C2C(=O)COC2=O)s1 [Compound 4, 3[(5-methyl-2-thienyl)methylene]2,4(3H,5H)-furandione]
Human tumor H5315 BREAST
  percentage of growth (colonies vs control): 62%
Human tumor H5318 OVARY
  percentage of growth (colonies vs control): 29%
Human tumor H5319 BREAST; [3]
  percentage of growth (colonies vs control): 6%
Human tumor H5319 BREAST; [4]
  percentage of growth (colonies vs control): 210%
[1]; [3]
  percentage of growth (colonies vs control): 36%
[1]; [4]
  percentage of growth (colonies vs control): 68%
[2]; [3]
  percentage of growth (colonies vs control): 22%
[2]; [4]
  percentage of growth (colonies vs control): 44%
Human tumor H5330 THYMUS; [3]
  percentage of growth (colonies vs control): 38%
Human tumor H5330 THYMUS; [4]
  percentage of growth (colonies vs control): 79%
Human tumor H5331 OVARY; [3]
  percentage of growth (colonies vs control): 48%
Human tumor H5331 OVARY; [4]
  percentage of growth (colonies vs control): 64%
Human tumor H5337 COLON; [3]
  percentage of growth (colonies vs control): 36%
Human tumor H5337 COLON; [4]
  percentage of growth (colonies vs control): 58%
Human tumor H5340 **; [3]
  percentage of growth (colonies vs control): 50%
Human tumor H5340 **; [4]
  percentage of growth (colonies vs control): 62%
Human tumor H5349 BREAST; [3]
  percentage of growth (colonies vs control): 9%
Human tumor H5349 BREAST; [4]
  percentage of growth (colonies vs control): 82%
Human tumors; five of nine tumors, read-out: growth, borderline sensitive tumors
  activity at 1 µg/mL: 30 to 50%
Human tumors; four of nine tumors, read-out: growth, sensitive tumors
  activity at 1 µg/mL: 0 to 30%
Human tumors; by analogy with other chemotherapy drugs
  peak plasma concentration at which compound should be effective in vivo: 10 µg/mL
Human tumors; one hour exposure, 1 mcg/ml
  activity against human solid tumors in vitro: extremely active against a wide variety of human solid tumors in vitro
Healthy mice; 1, 10, 100 mcg/ml calculated plasma, testing period
  deaths due to the compound: no deaths
Healthy mice; as calculated plasma concentration
  LD50: > 100 µg/mL
